Key:
[1] = test system: healthy women performing bike exercise; experiment: Change in energy consumption after bike exercise; type: in vivo, human; conditions: one tablet (200 mg) before exercise
Experimental: Six 22-year-old healthy women were divided into three groups of two. All the women were fasted for 24 hours (allowed only to drink water or tea), and two women of one group ingested one tablet of the orotic acid-containing throat candy (OA mouth-dissolving tablet), two women of another group ingested one tablet of the free form orotic acid monohydrate-containing tablets manufactured in Example 2 (OA tablet), and two women of the remaining group ingested one tablet of the placebo throat candy (non-ingestion), and the women performed bike exercise (exercise intensity: […]) for 30 minutes. Changes in energy consumption and changes in plasma uric acid level were measured at 2 hours, 3 hours, and 4 hours after completion of the exercise by the following measuring method. Exhalation was analyzed at immediately after completion of exercise and at 2 hours, 3 hours, and 4 hours after completion of exercise with AERO MONITOR AE 300S manufactured by Minato Medical Science Co., Ltd. Oxygen uptake volume and carbon dioxide production volume were measured, and the energy consumption (kcal/day) was determined by the following expression (1) to calculate the change in energy consumption. Energy consumption (kcal/day)=(3.9×oxygen uptake volume)+(1.1×carbon dioxide production volume) (1) Method for Measuring Change in Plasma Uric Acid Level

[2] = test system: human subjects in normobaric hypoxic room (oxygen concentration 12.4 to 12.7%); experiment: SpO2 and heart rate in a normobaric hypoxic room before and after administration of orotic acid; type: in vivo
Experimental: A person (subject A) entered a normobaric hypoxic room (oxygen concentration: 12.4 to 12.7%, equivalent to that at an altitude of about 4000 m, 23° C.) of Miura Dolphins and was then administered with 400 mg of orotic acid by repeating twice a method (sublingual administration) in which a mixture (400 mg) of free form orotic acid (manufactured by Kyowa Hakko Bio Co., Ltd., 200 mg) and L-carnitine (manufactured by Lonza Japan Ltd., 200 mg) wrapped in wafer paper was placed under the tongue and allowed to stay in the mouth for at least 30 seconds, and the SpO2 and heart rate were measured using a pulse oximeter PULSOX-300i (manufactured by Konica Minolta, Inc.). Incidentally, in this example, carnitine was used for enhancing the solubility of orotic acid in water (absorbability into oral mucosa (see Japanese unexamined Patent Application Publication No. 2015-43743). Subject A was required not to consciously change their breathing after entering the room. Three subjects ([subject A: the same subject as that Example 1], [subject B], and [subject C]) were subjected to a test according to the method described in [Test method 1] above. Subject A was subjected to examination of swallowing (oral administration) two tablets each containing 200 mg of free form orotic acid monohydrate (manufactured by Kyowa Hakko Bio Co., Ltd.) (400 mg of orotic acid in total) for comparison with sublingual administration. In this test, the oxygen concentration in the room was stable within a range of 12.4% to 12.7% throughout the test period.

[3] = test system: person suspected of having sleep apnea syndrome (SAS); experiment: SpO2 at apnea or hypopnea state in a person suspected of having sleep apnea syndrome; type: in vivo, human; conditions: one tablet of orotic acid-containing throat candy at bedtime, oral absorption
Text: A person suspected of having sleep apnea syndrome (SAS) ingested one tablet of the placebo throat candy manufactured in Example 3 at bedtime, and the maximum time of sleep apnea (a state in which breathing stops for 10 seconds of more) or hypopnea (a state in which ventilation by breathing falls to 50% or less for 10 seconds or more), which are detected with testing equipment for sleep apnea syndrome lent from a medical corporation Koshikai Ginza Yasue Clinic, and the SpO2 level at that time was measured two nights by the method in Example 1 (these levels are written by numerical numbers in the diagnostic results analyzed by the clinic software). The women then ingested one tablet of the orotic acid-containing throat candy manufactured in Example 3 at bedtime, and the maximum time of sleep apnea or hypopnea state and the SpO2 level at that time was measured by the same method as above two nights. In FIG. 6, the results in ingestion of one tablet of placebo throat candy are shown by round-shaped plots, and the results in ingestion of one tablet of orotic acid-containing throat candy are shown by diamond-shaped plots.

[4] = test system: ddY male mice; experiment: Oxygen consumption during non-exercise in mice (reference example 1); type: in vivo, mouse; conditions: 5 times a week for 4 weeks
Experimental: In order to verify whether orotic acid has an effect of decreasing the oxygen consumption during non-exercise or not, the following test was performed. Thirty-two ddY male mice (6-week old) bred in a thermostatic animal chamber of 24±2° C. for one week or more under a light-dark cycle of 12 hours (lighting from 8:00 to 20:00) were prepared. These mice were divided into two groups. Each mouse in one group (control group: CTL group) was administered with 0.5 mass % carboxymethyl cellulose solution (CMC solution) in an amount of 10 mL per 1 kg of mouse body weight. Each mouse in the other group (orotic acid administration group: OA group) was administered with orotic acid (50 mg/mL) suspended in 0.5 mass % CMC solution in an amount of 10 mL per 1 kg of mouse body weight. These administrations were performed 5 times a week for successive 4 weeks (20 times in total) for each mouse. Each mouse was transferred to a metabolism measurement chamber at 19:00 on the day of last administration to start fasting, and the oxygen consumption (VO2 [mL/min]) and carbon dioxide production volume (VCO2 [mL/min]) during the dark period from 20:00 to 8:00 on the following day were measured. […] In addition, the respiratory quotient (RER) of each mouse was calculated as a value obtained by dividing the carbon dioxide production volume by the oxygen consumption.

[5] = test system: male ddY mice; experiment: Limit swimming time in mice (reference example 3); type: in vivo, mouse
Experimental: The endurance-enhancing effect was verified using orotic acid as a test substance. Seven-week old male ddY mice were purchased from Japan SLC, Inc. and were each acclimatized for 7 days and then forced to swim with a weight on the tail. When a mouse could not come up to the water surface and stayed under the surface of the water for 5 seconds, the time thereof was measured as the limit swimming time. The mice were divided into groups, such that there was no difference in limit swimming time between the groups, as follows: control group (CTL group, n=10), orotic acid 250 mg/kg administration group (OA 250 mg/kg group, n=10), and orotic acid 500 mg/kg administration group (OA 500 mg/kg group, n=10). The mice in each group were bred using roughage (CE-2), and the mice in OA 250 mg/kg group and OA 500 mg/kg group were orally administered with 250 mg/kg of orotic acid and 500 mg/kg of orotic acid, respectively, five times a week. After the grouping, the limit swimming time in each group was measured once a week while being bred for 3 weeks.

[6] = test system: ddY male mice; experiment: Oxygen consumption during forced treadmill exercise in mice (reference example 2); type: in vivo, mouse; conditions: 5 times a week for 3 weeks
Experimental: In order to verify whether orotic acid has an effect of decreasing the oxygen consumption during exercise or not, the following test was performed. Twenty-four ddY male mice (6-week old) bred in a thermostatic animal chamber of 24±2° C. for one week or more under a light-dark cycle of 12 hours (lighting from 8:00 to 20:00) were prepared. These mice were divided into two groups. Each mouse in one group, CTL group, was administered with 0.5 mass % CMC solution in an amount of 10 mL per 1 kg of mouse body weight. Each mouse in the other group, OA group, was administered with 50 mg/mL of orotic acid suspended in 0.5 mass % CMC solution in an amount of 10 mL per 1 kg of mouse body weight. These administrations were performed 5 times a week for successive 3 weeks (15 times in total) for each mouse. Fasting of each mouse was started at 17:00 on the day of last administration. The mice were subjected to forced exercise using a mouse treadmill from 10:00 on the following day, and the oxygen consumption and the carbon dioxide production volume during exercise were measured. Incidentally, the forced exercise was performed for 30 minutes in total at a speed of 15 m/min for first 5 minutes, at a speed of 20 m/min for the following 5 minutes, and then at a speed of 25 m/min for 20 minutes. […] In addition, the respiratory quotient of each mouse was calculated as a value obtained by dividing the carbon dioxide production volume by the oxygen consumption.

[7] = test system: healthy women performing bike exercise; experiment: Change in plasma uric acid level after bike exercise (uricase-POD method); type: in vivo, human; conditions: non-ingestion group increase of 0.2 mg/dL
Experimental: Six 22-year-old healthy women were divided into three groups of two. All the women were fasted for 24 hours (allowed only to drink water or tea), and two women of one group ingested one tablet of the orotic acid-containing throat candy (OA mouth-dissolving tablet), two women of another group ingested one tablet of the free form orotic acid monohydrate-containing tablets manufactured in Example 2 (OA tablet), and two women of the remaining group ingested one tablet of the placebo throat candy (non-ingestion), and the women performed bike exercise (exercise intensity: […]) for 30 minutes. Changes in energy consumption and changes in plasma uric acid level were measured at 2 hours, 3 hours, and 4 hours after completion of the exercise by the following measuring method. The uric acid concentrations (mg/dL) at immediately after completion of exercise and at 4 hours after completion of exercise were determined by allowing peroxidase (POD) to act on hydrogen peroxide (H2O2), generated by oxidative decomposition of uric acid in a sample by the action of uricase, in the presence of 4-aminoantipyrine (4-AA) and a color former for oxidative condensation to generate a quinone dye (uricase-POD method). The resulting quinone dye is colorimetrically measured to calculate the change in plasma uric acid level.

O=C(O)c1cc(=O)[nH]c(=O)[nH]1 [orotic acid]
decrease in energy consumption at 2, 3 and 4 hours after bike exercise compared to immediately after exercise ([1]; oral absorption as throat candy): remarkable compared to that when orotic acid was ingested by oral administration
energy consumption at 2, 3 and 4 hours after bike exercise compared to immediately after exercise ([1]; oral administration): decreased
heart rate ([2]; subject A, 400 mg oral): did not have a considerable irregularity in heart rate
sense of discomfort felt to be caused by hypoxia ([2]; subject A, 400 mg oral): merely slightly improved
recovery of SpO2 level after oral administration ([2]; subject A, 400 mg oral (two swallowed tablets of free form orotic acid monohydrate), SpO2 decreased to 84%): hardly recovered
SpO2 level about 30 minutes after sublingual administration ([2]; subject A, 400 mg orotic acid sublingual (mixed with L-carnitine, in wafer paper), SpO2 83% to 84% before administration): 88%
SpO2 level stably maintained until leaving the room ([2]; subject A, 400 mg sublingual): about 88%
heart rate ([2]; subject A, 400 mg sublingual): no considerable irregularity in heart rate
sense of discomfort felt to be caused by hypoxia ([2]; subject A, 400 mg sublingual): disappeared soon after ingestion of orotic acid
time for which the increased SpO2 level was stably maintained ([2]; subject A, 400 mg sublingual, until leaving the room): at least 5 hours
heart rate before and after administration ([2]; subject B, 400 mg sublingual): hardly changed
symptoms such as light sleepiness and reduced concentration ([2]; subject B, 400 mg sublingual): cancelled
SpO2 level recovered after sublingual administration ([2]; subject B, 400 mg sublingual, SpO2 82% before, increased at about 30 minutes after administration): 86%
symptoms of altitude sickness, such as headache and bad feeling ([2]; subject C, 200 mg sublingual): disappeared
SpO2 level recovered after sublingual administration ([2]; subject C, 200 mg sublingual at 2 hours and 40 minutes after entering the room): higher than 80%
recovery of SpO2 level ([2]; subject C, 400 mg swallowed before dissolution of wafer paper (same as oral administration), SpO2 decreased to 70%): no recovery in the SpO2 level was observed
SpO2 level at the same apnea time, compared with no orotic acid (placebo throat candy) [3]: higher than that when orotic acid was not ingested
respiratory quotient (RER) compared to control group [4]: not a significant difference
carbon dioxide production volume (VCO2) compared to control group ([4]; dark period): significantly decreased
oxygen consumption (VO2) compared to control group ([4]; dark period, orotic acid 50 mg/mL suspension 10 mL/kg): significantly decreased
effect of oral administration on the day of administration or within one week ([5]; experiments using mice, oral administration, at least three weeks needed for a significant difference): not observed
limit swimming time ([5]; oral 250 mg/kg and 500 mg/kg, five times a week, 3 weeks): prolonged depending on the dose of orotic acid
carbon dioxide production volume (VCO2) compared to control group [6]: significantly decreased
respiratory quotient (RER) compared to control group [6]: not a significant difference
oxygen consumption (VO2) compared to control group ([6]; orotic acid 50 mg/mL suspension 10 mL/kg): significantly decreased
change of uric acid concentration between immediately after exercise and 4 hours after exercise (decrease) ([7]; orotic acid ingested by oral absorption as throat candy): 0.05 mg/dL
change of uric acid concentration between immediately after exercise and 4 hours after exercise (increase) ([7]; orotic acid ingested by oral administration): 0.1 mg/dL
